From PMC1888807 (2007) come the findings set out here.

In experiment [1] the test system is H78 (DNA, G4) TTAGGGTTAGGGTTAGGGTTAGGGTTAGGGTTAGGGTTAGGGTTAGGGTTAGGGTTAGGGTTAGGGTTAGGGTTAGGG
In words: melting. Conditions: 150 mM Na+; 10 mM Tris-HCl pH 7.5; BMVC:H78 molar ratio 10; ~51 to ~68 °C.

Experiment [2] concerns H24 (DNA, G4) TTAGGGTTAGGGTTAGGGTTAGGG
In words: CD melting at 295 nm. As to conditions: 150 mM Na+; 10 mM Tris-HCl pH 7.5; BMVC:H24 molar ratio 5.

In the case of `C[n+]1ccc(C=Cc2ccc3[nH]c4ccc(C=Cc5cc[n+](C)cc5)cc4c3c2)cc1`, the melting temperature increase was ~ 17 °C in experiment [1] and 18 °C in experiment [2].
